How the values were obtained:
[1] = system: OVCAR-3; experiment: Growth inhibition of human OVCAR-3 cells assessed as growth percentage at 0.1 uM incubated for 48 hrs by sulforhodamine B assay relative to control; assay type: functional; settings: read-out: Activity
[2] = system: RPMI-8226; experiment: Growth inhibition of human RPMI-8226 cells assessed as growth percentage at 100 uM incubated for 48 hrs by sulforhodamine B assay relative to control; assay type: functional; settings: read-out: Activity
[3] = system: RXF 393; experiment: Growth inhibition of human RXF 393 cells assessed as growth percentage at 1 uM incubated for 48 hrs by sulforhodamine B assay relative to control; assay type: functional; settings: read-out: Activity
[4] = system: HCT-116; experiment: Growth inhibition of human HCT-116 cells assessed as growth percentage at 100 uM incubated for 48 hrs by sulforhodamine B assay relative to control; assay type: functional; settings: read-out: Activity
[5] = system: RXF 393; experiment: Growth inhibition of human RXF 393 cells incubated for 48 hrs by sulforhodamine B assay; assay type: functional
[6] = system: UACC-257; experiment: Growth inhibition of human UACC-257 cells assessed as growth percentage at 10 uM incubated for 48 hrs by sulforhodamine B assay relative to control; assay type: functional; settings: read-out: Activity
[7] = system: PC-3; experiment: Growth inhibition of human PC-3 cells assessed as growth percentage at 10 uM incubated for 48 hrs by sulforhodamine B assay relative to control; assay type: functional; settings: read-out: Activity
[8] = system: UACC-257; experiment: Growth inhibition of human UACC-257 cells incubated for 48 hrs by sulforhodamine B assay; assay type: functional
[9] = system: MDA-MB-468; experiment: Growth inhibition of human MDA-MB-468 cells assessed as growth percentage at 10 uM incubated for 48 hrs by sulforhodamine B assay relative to control; assay type: functional; settings: read-out: Activity
[10] = system: HCT-116; experiment: Growth inhibition of human HCT-116 cells incubated for 48 hrs by sulforhodamine B assay; assay type: functional; settings: for CC50: read-out: LC50 (the source's name)
[11] = system: 786-0; experiment: Growth inhibition of human 786-0 cells incubated for 48 hrs by sulforhodamine B assay; assay type: functional
[12] = system: NCI-H23; experiment: Growth inhibition of human NCI-H23 cells assessed as growth percentage at 10 uM incubated for 48 hrs by sulforhodamine B assay relative to control; assay type: functional; settings: read-out: Activity
[13] = system: NCI/ADR-RES; experiment: Growth inhibition of human NCI/ADR-RES cells assessed as growth percentage at 1 uM incubated for 48 hrs by sulforhodamine B assay relative to control; assay type: functional; settings: read-out: Activity
[14] = system: TK-10; experiment: Growth inhibition of human TK-10 cells assessed as growth percentage at 0.01 uM incubated for 48 hrs by sulforhodamine B assay relative to control; assay type: functional; settings: read-out: Activity
[15] = system: HT-29; experiment: Growth inhibition of human HT-29 cells assessed as growth percentage at 100 uM incubated for 48 hrs by sulforhodamine B assay relative to control; assay type: functional; settings: read-out: Activity
[16] = system: IGROV-1; experiment: Growth inhibition of human IGROV-1 assessed as growth percent at 0.1 uM incubated for 48 hrs by sulforhodamine B assay relative to control; assay type: functional; settings: read-out: Activity
[17] = system: MOLT-4; experiment: Growth inhibition of human MOLT-4 cells assessed as growth percentage at 10 uM incubated for 48 hrs by sulforhodamine B assay relative to control; assay type: functional; settings: read-out: Activity
[18] = system: ACHN; experiment: Growth inhibition of human ACHN cells assessed as growth percentage at 10 uM incubated for 48 hrs by sulforhodamine B assay relative to control; assay type: functional; settings: read-out: Activity
[19] = system: A549; experiment: Growth inhibition of human A549/ATCC cells incubated for 48 hrs by sulforhodamine B assay; assay type: functional
[20] = system: BT-549; experiment: Growth inhibition of human BT-549 cells assessed as growth percentage at 10 uM incubated for 48 hrs by sulforhodamine B assay relative to control; assay type: functional; settings: read-out: Activity
[21] = system: 786-0; experiment: Growth inhibition of human 786-0 cells assessed as growth percentage at 100 uM incubated for 48 hrs by sulforhodamine B assay relative to control; assay type: functional; settings: read-out: Activity
[22] = system: SK-MEL-2; experiment: Growth inhibition of human SK-MEL-2 cells assessed as growth percentage at 10 uM incubated for 48 hrs by sulforhodamine B assay relative to control; assay type: functional; settings: read-out: Activity
[23] = system: OVCAR-3; experiment: Growth inhibition of human OVCAR-3 cells assessed as growth percentage at 0.01 uM incubated for 48 hrs by sulforhodamine B assay relative to control; assay type: functional; settings: read-out: Activity
[24] = system: 786-0; experiment: Growth inhibition of human 786-0 cells assessed as growth percentage at 10 uM incubated for 48 hrs by sulforhodamine B assay relative to control; assay type: functional; settings: read-out: Activity
[25] = system: RPMI-8226; experiment: Growth inhibition of human RPMI-8226 cells assessed as growth percentage at 10 uM incubated for 48 hrs by sulforhodamine B assay relative to control; assay type: functional; settings: read-out: Activity
[26] = system: HCT-116; experiment: Growth inhibition of human HCT-116 cells assessed as growth percentage at 0.01 uM incubated for 48 hrs by sulforhodamine B assay relative to control; assay type: functional; settings: read-out: Activity
[27] = system: MCF7; experiment: Growth inhibition of human MCF7 cells assessed as growth percentage at 0.1 uM incubated for 48 hrs by sulforhodamine B assay relative to control; assay type: functional; settings: read-out: Activity
[28] = system: Malme-3M; experiment: Growth inhibition of human Malme-3M cells assessed as growth percentage at 100 uM incubated for 48 hrs by sulforhodamine B assay relative to control; assay type: functional; settings: read-out: Activity
[29] = system: NCI-H460; experiment: Growth inhibition of human NCI-H460 cells assessed as growth percentage at 100 uM incubated for 48 hrs by sulforhodamine B assay relative to control; assay type: functional; settings: read-out: Activity
[30] = system: RXF 393; experiment: Growth inhibition of human RXF 393 cells assessed as growth percentage at 100 uM incubated for 48 hrs by sulforhodamine B assay relative to control; assay type: functional; settings: read-out: Activity
[31] = system: UO-31; experiment: Growth inhibition of human UO-31 cells assessed as growth percentage at 0.01 uM incubated for 48 hrs by sulforhodamine B assay relative to control; assay type: functional; settings: read-out: Activity
[32] = system: HT-29; experiment: Growth inhibition of human HT-29 cells assessed as growth percentage at 0.01 uM incubated for 48 hrs by sulforhodamine B assay relative to control; assay type: functional; settings: read-out: Activity
[33] = system: Malme-3M; experiment: Growth inhibition of human Malme-3M cells assessed as growth percentage at 0.1 uM incubated for 48 hrs by sulforhodamine B assay relative to control; assay type: functional; settings: read-out: Activity
[34] = system: SNB-19; experiment: Growth inhibition of human SNB-19 cells assessed as growth percentage at 0.1 uM incubated for 48 hrs by sulforhodamine B assay relative to control; assay type: functional; settings: read-out: Activity
[35] = system: MCF7; experiment: Antiproliferative activity against human MCF7 cells assessed as cell growth inhibition measured after 72 hrs by MTT assay; assay type: functional
[36] = target: High affinity nerve growth factor receptor (Homo sapiens, UniProt P04629); experiment: Inhibition of human Trk-A using myelin basic protein as substrate incubated for 40 mins in presence of [gamma33P]ATP by scintillation counting method
Chain of High affinity nerve growth factor receptor (P04629 whole entry): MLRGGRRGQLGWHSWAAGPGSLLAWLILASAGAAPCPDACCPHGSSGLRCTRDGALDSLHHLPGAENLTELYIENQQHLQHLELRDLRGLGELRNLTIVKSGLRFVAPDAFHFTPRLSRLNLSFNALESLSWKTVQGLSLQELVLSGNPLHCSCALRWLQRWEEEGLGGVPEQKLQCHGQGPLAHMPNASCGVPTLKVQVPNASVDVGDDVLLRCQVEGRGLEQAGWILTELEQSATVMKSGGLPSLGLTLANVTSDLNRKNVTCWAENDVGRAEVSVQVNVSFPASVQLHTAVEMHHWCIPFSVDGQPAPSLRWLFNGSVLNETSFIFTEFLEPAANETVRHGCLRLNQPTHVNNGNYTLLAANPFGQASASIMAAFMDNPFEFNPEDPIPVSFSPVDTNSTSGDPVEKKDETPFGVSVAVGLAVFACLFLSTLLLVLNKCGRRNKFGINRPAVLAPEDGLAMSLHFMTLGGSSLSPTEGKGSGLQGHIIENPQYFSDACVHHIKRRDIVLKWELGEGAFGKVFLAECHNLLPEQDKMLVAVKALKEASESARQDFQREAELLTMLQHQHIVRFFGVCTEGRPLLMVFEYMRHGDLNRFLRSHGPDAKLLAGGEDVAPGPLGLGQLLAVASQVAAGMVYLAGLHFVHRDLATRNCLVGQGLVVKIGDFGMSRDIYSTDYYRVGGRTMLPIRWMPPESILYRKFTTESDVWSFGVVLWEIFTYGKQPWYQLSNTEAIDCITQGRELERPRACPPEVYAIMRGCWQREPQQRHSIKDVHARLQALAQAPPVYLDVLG

[37] = system: Hs-578T; experiment: Growth inhibition of human Hs-578T cells assessed as growth percentage at 10 uM incubated for 48 hrs by sulforhodamine B assay relative to control; assay type: functional; settings: read-out: Activity
[38] = system: MOLT-4; experiment: Growth inhibition of human MOLT-4 cells assessed as growth percentage at 0.01 uM incubated for 48 hrs by sulforhodamine B assay relative to control; assay type: functional; settings: read-out: Activity

CCCCCCCC(=O)Nc1nc2[nH]c(CN3CCN(Cc4cccc(F)c4)CC3)c(CN3CCN(Cc4cccc(F)c4)CC3)c2c(=O)[nH]1
growth at 0.1 µM [1]: 102%
growth at 100 µM [2]: 1%
growth at 1 µM [3]: 29%
growth at 100 µM [4]: -69%
GI50 [5]: 510 nM
LC50 (concentration killing 50% of cells) [5]: 4450 nM
TGI [5]: 1740 nM
growth at 10 µM [6]: -18.5%
growth at 10 µM [7]: -95.1%
GI50 ([8]; 48 h): 200 nM
TGI ([8]; 48 h): 460 nM
GI50 ([8]; Homo sapiens, UACC-257, 48 h): 203 nM
LC50 (concentration killing 50% of cells) ([8]; Homo sapiens, UACC-257, 48 h): 1090 nM
TGI ([8]; Homo sapiens, UACC-257, 48 h): 456 nM
growth at 10 µM [9]: -68.7%
GI50 ([10]; 48 h): 170 nM
TGI ([10]; 48 h): 320 nM
CC50 ([10]; 48 h): 600 nM
GI50 ([10]; Homo sapiens, HCT-116, 48 h): 171 nM
TGI ([10]; Homo sapiens, HCT-116, 48 h): 321 nM
CC50 ([10]; Homo sapiens, HCT-116, 48 h): 601 nM
GI50 [11]: 1540 nM
LC50 (concentration killing 50% of cells) [11]: 5670 nM
TGI [11]: 2950 nM
growth at 10 µM [12]: -53.8%
growth at 1 µM [13]: 79%
growth at 0.01 µM [14]: 91%
growth at 100 µM [15]: -68%
growth at 0.1 µM [16]: 95%
growth at 10 µM [17]: -40%
growth at 10 µM [18]: -96.6%
GI50 ([19]; 48 h): 340 nM
LC50 ([19]; Homo sapiens, A549): 4360 nM
TGI ([19]; Homo sapiens, A549): 1240 nM
GI50 ([19]; Homo sapiens, A549, 48 h): 343 nM
growth at 10 µM [20]: 29%
growth at 100 µM [21]: -95%
growth at 10 µM [22]: -66.9%
growth at 0.01 µM [23]: 100%
growth at 10 µM [24]: -100%
growth at 10 µM [25]: -47.3%
growth at 0.01 µM [26]: 95%
growth at 0.1 µM [27]: 87%
growth at 100 µM [28]: -73%
growth at 100 µM [29]: -85%
growth at 100 µM [30]: -95%
growth at 0.01 µM [31]: 77%
growth at 0.01 µM [32]: 96%
growth at 0.1 µM [33]: 96%
growth at 0.1 µM [34]: 98%
GI50 [35]: 2150 nM
IC50 [36]: 2250 nM
growth at 10 µM [37]: -49.4%
growth at 0.01 µM [38]: 95%

Nc1nc2[nH]c(CN3CCN(c4cc(Cl)cc(Cl)c4)CC3)c(CN3CCN(c4cc(Cl)cc(Cl)c4)CC3)c2c(=O)[nH]1
growth at 0.1 µM [1]: 106%
growth at 100 µM [2]: -19%
growth at 1 µM [3]: 85%
growth at 100 µM [4]: -59%
GI50 [5]: 1580 nM
TGI [5]: 3070 nM
growth at 10 µM [6]: 97.6%
growth at 10 µM [7]: 59.6%
GI50 ([8]; Homo sapiens, UACC-257, 48 h): 2060 nM
TGI ([8]; Homo sapiens, UACC-257, 48 h): 4760 nM
growth at 10 µM [9]: 40.1%
GI50 ([10]; Homo sapiens, HCT-116, 48 h): 1630 nM
TGI ([10]; Homo sapiens, HCT-116, 48 h): 3170 nM
CC50 ([10]; Homo sapiens, HCT-116, 48 h): 6180 nM
GI50 [11]: 1570 nM
TGI [11]: 3180 nM
growth at 10 µM [12]: 85.7%
growth at 1 µM [13]: 102%
growth at 0.01 µM [14]: 101%
growth at 100 µM [15]: -70%
growth at 0.1 µM [16]: 105%
growth at 10 µM [17]: 23.6%
growth at 10 µM [18]: 96.8%
TGI ([19]; Homo sapiens, A549): 3730 nM
GI50 ([19]; Homo sapiens, A549, 48 h): 1820 nM
growth at 10 µM [20]: 87%
growth at 100 µM [21]: -41%
growth at 10 µM [22]: 108%
growth at 0.01 µM [23]: 105%
growth at 10 µM [24]: 72.6%
growth at 10 µM [25]: 38.4%
growth at 0.01 µM [26]: 100%
growth at 0.1 µM [27]: 90%
growth at 100 µM [28]: -42%
growth at 100 µM [29]: -58%
growth at 100 µM [30]: -28%
growth at 0.01 µM [31]: 96%
growth at 0.01 µM [32]: 105%
growth at 0.1 µM [33]: 90%
growth at 0.1 µM [34]: 91%
GI50 [35]: 4020 nM
IC50 [36]: 12400 nM
growth at 10 µM [37]: 98.8%
growth at 0.01 µM [38]: 100%

— ChEMBL document CHEMBL4673219, “Novel 5,6-disubstituted pyrrolo[2,3-d]pyrimidine derivatives as broad spectrum antiproliferative agents: Synthesis, cell based assays, kinase profile and molecular docking study” (Bioorg Med Chem, 2018)
